Where two headings read alike, the source gives them in different places.
How the values were obtained:
[1] = Reactive oxygen species removal activity assay (SIN-1, DCFH); details: test samples 40 μM; SIN-1 10 μM
Description: To assess reactive oxygen species (ROS) removal activity, a DCFH solution was prepared by mixing 50 μL DCFH-DA (1.25 mM), 50 μL esterase (0.6 unit/μL), and 4.9 mL phosphate buffer (50 mM) and maintained in the dark for 30 min. The SIN-1 solution (10 μL) was added to each well of a 96-black well that contained the test sample (10 μL; 2-MMBI derivatives 1–10 and Trolox [positive material]) and phosphate buffer (180 μL). 2-MMBI derivatives, Trolox, and SIN-1 were exposed at final concentrations of 40, 40, and 10 μM, respectively. The prepared DCFH solution (50 μL) was added to each well after 10 min. The fluorescence intensity of 2′,7′-dichlorofluorescein in the wells was measured at 535 nm using a microplate reader (Berthold Advances GmbH & Co., Bad Wildbad, Germany) with an excitation wavelength of 485 nm. Each experiment was conducted independently four times.

ABTS●+ scavenging assay = details: 100 μM
Description: A 2.45 mM K2S2O8 aqueous solution was mixed with a 7-mM ABTS aqueous solution in a 1:1 volume ratio. The mixture was left at 20 °C in the dark for 19 h. To adjust the adequate absorbance (0.70 ± 0.01) at 732 nm, the mixture was diluted with methanol. The diluted ABTS^●+ mixture (90 μL) in each well of a 96-well plate was mixed with a test sample (2-MMBI derivatives 1–10 and Trolox [positive material]; 10 μL in EtOH/DMSO [9/1 (v/v)] solution). All test samples were tested at a final concentration of 100 μM. Prior to the measurement of well optical density at 732 nm at 1-min intervals for 10 min using a VersaMax™ reader, the test sample-ABTS^●+ mixture was stored for 2 min in the dark. Each experiment was conducted independently in triplicate.

[2] = DPPH radical removal assay; details: 500 μM; 30 min in the dark
Description: An aliquot (20-μL DMSO solution) of a test sample (5 mM 2-MMBI derivatives 1–10 and 5 mM vitamin C [positive material]) was added to each well of a 96-well microplate containing 180 μL DPPH methanol solution (0.2 mM). After the mixture was left in the dark at 22 °C for 30 min, the optical density at 517 nm was recorded using a VersaMax™ reader. Each experiment was conducted independently in triplicate.

B16F10 cells = assay: Melanin content measurement assay in B16F10 cells; format: cell-based, murine; details: α-MSH 1 μM plus IBMX 200 μM, 72 h
Description: A 6-well plate containing 5 × 10^3 B16F10 cells per well was incubated at 37 °C and 5% CO2 for 1 day. […] After 1 h, 1 μM α-MSH and 200 μM IBMX were added to each well, and the plate was subsequently incubated at 37 °C and 5% CO2 for 72 h. The cells were exposed to […] 1N-NaOH solution and cultured at 60 °C for 1 h after washing with PBS. The lysates were transferred to each well of a 96-well plate, and the optical density at 405 nm was recorded using a VersaMax™ reader. […] Each assay was independently performed three times.

[3] = Copper(II) ion-chelating activity using pyrocatechol violet; details: test samples 100 μM, pH 6.0
Description: Copper(II) ion-chelating activity was measured using pyrocatechol violet reagent, a copper(II)-chelating agent. Copper(II) sulfate solution (10 μL, 1 mg/mL) was added to each well of a 96-well microplate containing acetic acid–sodium acetate buffer (280 μL, 50 mM [pH 6.0]), 2-MMBI derivative (1–10; 10 μL, 100 μM as a final concentration), and pyrocatechol violet (6 μL, 4 mM). Absorbance was measured at 632 nm using a VersaMax™ reader after the microplate was incubated for 20 min at 24 °C. Cu(II) ion-chelating activity (%) = 100 × [(Abscon − Abssam)/Abscon] where Abscon and Abssam are the absorbances of the control and samples, respectively. Each experiment was independently performed in triplicate.

zebrafish larvae = assay: Melanogenesis (depigmentation) assay using zebrafish embryos; format: in vivo
Description: To assess depigmentation in vivo, wild-type zebrafish (Danio rerio) embryos were acquired free of charge from the Zebrafish Center for Disease Modeling (ZCDM) located at Chungnam National University in Daejeon, Republic of Korea. The zebrafish were raised in tanks maintained at 28 °C in the ZCDM. The tanks were oxygenated, and the tank lights were turned off for 10 h and on for 14 h. The zebrafish embryos used for in vivo depigmentation experiments were obtained through natural mating. The E3 solution for zebrafish embryos was prepared by dissolving 19.9 mg magnesium sulfate, 6.4 mg potassium chloride, 18.3 mg calcium chloride, and 146.1 mg sodium chloride in 500 mL distilled water. E3-MB (methylene blue) solution was prepared by adding MB to the E3 solution to create a 0.001% MB solution. The acquired zebrafish embryos were transferred to a culture dish containing the E3-MB solution. The culture dish was incubated at 28 °C until zebrafish embryos were used. Since zebrafish embryos are sensitive and can be easily killed by the chorion removal process 20 h post-fertilization (20 hpf), the chorion was removed at 24 hpf through treatment with pronase (Sigma-Aldrich, St. Louis, MO, USA). Five dechorionated zebrafish embryos were transferred to each well of 48-well microplates containing 250 μL E3 solution. […] Zebrafish larvae were anesthetized with tricaine at 76 hpf and placed on a 1% methylcellulose block to determine the degree of zebrafish larva depigmentation. Dorsal and lateral images of the zebrafish larvae were acquired using an SMZ745T microscope (Nikon, Tokyo, Japan). The pigmented areas of the dorsal and lateral images were obtained using CS analyzer 3.0 image analysis software (ATTO, Tokyo, Japan). Each assay (n = 7) was independently performed two times.

mushroom TYR [4] = molecular target: T1, mushroom TYR (Agaricus bisporus, UniProt C7FF04); assay: Mushroom TYR activity assay with and without CuSO4; format: biochemical; details: 20 μM derivative, L-tyrosine
T1 sequence (C7FF04 2-392): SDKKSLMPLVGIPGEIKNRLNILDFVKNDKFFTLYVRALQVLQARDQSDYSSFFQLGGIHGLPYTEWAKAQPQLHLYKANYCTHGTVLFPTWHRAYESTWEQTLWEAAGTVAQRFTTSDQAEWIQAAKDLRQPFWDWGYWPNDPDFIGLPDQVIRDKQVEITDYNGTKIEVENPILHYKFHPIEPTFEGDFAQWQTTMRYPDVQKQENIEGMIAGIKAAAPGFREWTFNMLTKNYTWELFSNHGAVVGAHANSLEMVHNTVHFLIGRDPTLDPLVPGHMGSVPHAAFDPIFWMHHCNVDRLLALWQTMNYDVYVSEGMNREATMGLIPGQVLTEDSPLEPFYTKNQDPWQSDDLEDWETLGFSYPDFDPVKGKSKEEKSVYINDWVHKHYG
Description: To determine whether copper(II) ions influence the TYR-inhibitory activity of 2-MMBI derivatives, the effects of these derivatives on mushroom TYR activity were measured with and without CuSO4. Briefly, mushroom TYR aqueous solution (20 μL, 1 unit/μL) was mixed with 2-MMBI derivatives (1, 3, and 8–10) (10 μL, final concentration: 20 μM) and with the substrate solution (170 μL), comprising 17.2 mM phosphate buffer (pH 6.5) and 345 μM L-tyrosine, in the presence or absence of CuSO4 (50 μL, final concentration: 50 μM) in each well of a 96-well plate. […] Each assay was carried out independently in triplicate.

B16F10 cellular TYR = molecular target: T2, B16F10 cellular TYR (Mus musculus, UniProt P11344); assay: TYR activity assay in B16F10 cells; format: cell-based, murine; details: 2, 5, and 10 μM; α-MSH 1 μM plus IBMX 200 μM; 72 h
T2 construct: The in situ cellular TYR activities of the 2-MMBI derivatives were investigated using B16F10 cells; endogenous in cells; host or cells: B16F10 murine melanoma cells stimulated with alpha-MSH and IBMX
T2 sequence (P11344 19-533): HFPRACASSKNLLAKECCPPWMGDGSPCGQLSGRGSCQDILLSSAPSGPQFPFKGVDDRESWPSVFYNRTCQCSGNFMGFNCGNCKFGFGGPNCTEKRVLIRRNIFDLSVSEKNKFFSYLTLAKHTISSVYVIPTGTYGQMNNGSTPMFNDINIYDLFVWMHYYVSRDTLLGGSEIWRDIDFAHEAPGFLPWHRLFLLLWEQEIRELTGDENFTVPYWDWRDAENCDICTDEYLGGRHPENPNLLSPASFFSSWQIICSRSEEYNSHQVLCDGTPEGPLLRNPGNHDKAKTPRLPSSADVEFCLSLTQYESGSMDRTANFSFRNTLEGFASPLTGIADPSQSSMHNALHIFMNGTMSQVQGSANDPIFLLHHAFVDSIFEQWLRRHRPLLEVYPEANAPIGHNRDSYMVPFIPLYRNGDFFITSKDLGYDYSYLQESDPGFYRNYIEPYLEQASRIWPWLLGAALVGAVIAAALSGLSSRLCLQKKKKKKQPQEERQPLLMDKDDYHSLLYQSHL
Description: A 6-well plate containing 5 × 10^3 B16F10 cells per well was incubated (37 °C and 5% CO2) for 1 day. […] Stimulators (1 μM α-MSH and 200 μM IBMX) were added after 1 h, and the plate was incubated (37 °C and 5% CO2) for 72 h. After washing with PBS, 100 μL lysis buffer consisting of 1% Triton X-100, 1 mM phenylmethylsulfonyl fluoride, and 50 mM sodium phosphate buffer (pH 6.5) in a volume ratio of 1:1:18 was added to each well. Following an incubation period of 30 min at −80 °C, the cell lysates were centrifuged at 12,000× g for 10 min at 4 °C to obtain the supernatants. […] Each assay was independently performed three times.

mushroom TYR [5] = molecular target: T1, mushroom TYR; assay: Kinetic studies on mushroom TYR (Lineweaver–Burk and Dixon plots); format: biochemical; details: L-dopa as substrate
Description: Kinetic experiments were performed to obtain Lineweaver–Burk plots for the analysis of mushroom TYR kinetics. Mushroom TYR solution (20 μL, 150 units/mL) was added to each well of a 96-well microplate containing 2-MMBI derivatives (10 μL; 0, 7.5, 15, and 30 μM for 1; 0, 5, 10, and 20 μM for 3 and 8; and 0, 12.5, 25, and 50 μM for 9) and a substrate solution (170 μL) composed of sodium phosphate buffer (17.2 mM; pH 6.5) and L-dopa (various concentrations: 0.5, 1, 2, 4, 8, and 16 mM). […] Lineweaver–Burk plots for each 2-MMBI derivative were obtained by plotting the value of 1/[substrate] against the value of (min/ΔOD475). Lineweaver–Burk plots were transformed into corresponding Dixon plots by plotting the value of (min/ΔOD475) against the value of the 2-MMBI derivative concentration.

Cc1c(C)c2c(c(C)c1O)CCC(C)(C(=O)O)O2 (stereo not drawn) [Trolox, reference compound]
ROS scavenging activity [1]: highest ROS scavenging activity | ABTS●+ inhibition (ABTS●+ scavenging assay): 99%

O=C1O[C@H]([C@@H](O)CO)C(O)=C1O [L-ASCORBIC acid, L-ascorbic acid]
DPPH radical scavenging activity [2]: 97%

O=c1cc(CO)occ1O [Kojic acid, reference compound]
effect on B16F10 cellular melanin production at 10 μM (B16F10 cells): decreased the stimulator-induced melanin levels | copper chelating activity [3]: 27% | depigmentation of zebrafish larvae, kojic acid (zebrafish larvae; 20 mM, 48 h, compared to control): significantly reduced melanin pigments | pigmentation area of zebrafish larvae (CS analyzer, dorsal and lateral views) (zebrafish larvae; derivatives 0.03 and 0.1 mM, kojic acid 20 mM): significantly reduced pigmentation

O=[N+]([O-])c1ccc2[nH]c(CS)nc2c1 [Derivative 6, (5-Nitro-1H-benzo[d]imidazol-2-yl)methanethiol]
ROS scavenging activity [1]: stronger ROS scavenging efficacy than the other derivatives | copper chelating activity [3]: 35% | depigmentation of zebrafish larvae at 0.03 and 0.1 mM (zebrafish larvae; 0.03 and 0.1 mM, 48 h): did not exhibit significant depigmentation

Cc1ccc2[nH]c(CS)nc2c1 [Derivative 8, (5-Methyl-1H-benzo[d]imidazol-2-yl)methanethiol]
effect on B16F10 cellular melanin production at 10 μM (B16F10 cells): inhibited melanin production more strongly than kojic acid | effect on B16F10 cellular melanin production at three concentrations (B16F10 cells; 2, 5, and 10 μM): significantly decreased the melanin levels increased by the stimulators in a concentration-dependent manner | inhibition at 20 µM (mushroom TYR [4]; CuSO4 50 μM added externally, read-out: inhibition of mushroom TYR activity with CuSO4): 63% | inhibition at 20 µM (mushroom TYR [4]; no CuSO4 added externally, read-out: inhibition of mushroom TYR activity without CuSO4): 86 to 89% | depigmentation of zebrafish larvae at 0.03 mM (zebrafish larvae; 0.03 mM, compared with kojic acid 20 mM, 48 h): much stronger depigmentation efficacy than kojic acid | effect on B16F10 cellular TYR activity (B16F10 cellular TYR): significantly reduced stimulator-enhanced cellular TYR activity in a dose-dependent manner | inhibition mechanism (mushroom TYR [5]): mixed TYR inhibitors

NC(=S)Nc1ccccc1 [PTU, phenylthiourea]
copper chelating activity [3]: 37%

Reference: paper PMC11505594, “Design, Synthesis, and Anti-Melanogenic Activity of 2-Mercaptomethylbenzo[d]imidazole Derivatives Serving as Tyrosinase Inhibitors: An In Silico, In Vitro, and In Vivo Exploration” (Antioxidants, 2024)
